According to patent US10781184B2, “Substituted benzazinones as antibacterial compounds” (GlaxoSmithKline Intellectual Property Development Limited, priority 2015, dated 2020):
Converted amounts (≈) assume the structure as drawn.

What was measured:
Assay in all cases: Minimum Inhibitory Concentration Assay (broth microdilution, CLSI)
Type in all cases: cell-based
E. coli 7623 = settings: Escherichia coli; strain 7623, broth microdilution; read-out: E. coli 7623 MIC
Description: (§1) Methods for dilution Antimicrobial Susceptibility TestS for Bacteria that Grow Aerobically; Approved Standard-Ninth Edition; M7-A9, Vol. 32 No. 2, Clinical and Laboratory Standards Institute, Wayne, Pa.; January 2012.
(§2) Performance Standards for Antimicrobial Susceptibility Testing; Twenty-Second Informational Supplement; M100-S22 Vol. 32 No. 3; Clinical and Laboratory Standards Institute, Wayne, Pa., January 2012.
(§3) Broth microdilution was performed in accordance with the CLSI recommended procedures for aerobic bacteria [CLSI, 2012].
(§4) Comparator compound stock solutions were prepared as recommended by CLSI [CLSI, 2012]. The stock solutions of novel GSK compounds were prepared at 512 mcg/mL by dissolving the compounds in dimethyl sulfoxide (DMSO) and diluting 1:10 with sterile water. The 512 mcg/mL stock was further serially diluted in the recommended broth media for the organisms being tested. Final DMSO concentration in test wells was less than 1%.
(§5) Microtitre plates were prepared using the Microlab STAR™ (Hamilton Co., Reno, Nev.) to add media (50 μL) and the Microlab AT Plus system (Hamilton Co., Reno, Nev.) to serially dilute the compounds (final concentration range 0.125 to 128 mcg/mL) and to add inoculum. A positive growth control well containing medium and the test isolate was included on each microtitre plate. Ten microliters of the test medium from the positive growth control well was plated to determine the purity of each test isolate. A microtitre mirror reader (Cooke Instruments, Ltd., England) was used to assist in determining the microdilution MIC endpoints. The MIC was determined as the lowest concentration of compound that inhibited visible growth of the organism.

K. pneumoniae 1161486 = settings: Klebsiella pneumoniae; strain 1161486, broth microdilution; read-out: K. pneumoniae 1161486 MIC
Description: as §1, §2, §3, §4, §5

P. aeruginosa PA01 = settings: Pseudomonas aeruginosa; strain PA01, broth microdilution; read-out: P. aeruginosa PA01 MIC
Description: as §1, §2, §3, §4, §5

| Structure (SMILES) | MIC (E. coli 7623) [µg/mL] | MIC (K. pneumoniae 1161486) [µg/mL] | MIC (P. aeruginosa PA01) [µg/mL] |
| --- | --- | --- | --- |
| C[C@@](CCn1cnc2cc(-c3ccc(CCO)cc3F)ccc2c1=O)(C(=O)NO)S(C)(=O)=O [Example 45, (2R)-4-{7-[2-fluoro-4-(2-hydroxyethyl)phenyl]-4-oxo-3,4-dihydroquinazolin-3-yl}-N-hydroxy-2-methanesulfonyl-2-methylbutanamide] | 0.063 (≈ 0.132 µM) | 1 (≈ 2.09 µM) | 1 (≈ 2.09 µM) |
| CCONCc1ccc(-c2ccc3c(=O)n(CC[C@](C)(C(=O)NO)S(C)(=O)=O)cnc3c2)c(F)c1 [Example 51, (2R)-4-(7-{4-[(ethoxyamino)methyl]-2-fluorophenyl}-4-oxo-3,4-dihydroquinazolin-3-yl)-N-hydroxy-2-methanesulfonyl-2-methylbutanamide] | 0.125 (≈ 0.247 µM) | 0.5 (≈ 0.987 µM) | 2 (≈ 3.95 µM) |
| COc1ccc(-c2ccc3c(=O)n(CC[C@](C)(C(=O)NO)S(C)(=O)=O)ccc3c2)cc1 [Example 53, (2R)—N-hydroxy-2-methanesulfonyl-4-[6-(4-methoxyphenyl)-1-oxo-1,2-dihydroisoquinolin-2-yl]-2-methylbutanamide] | < 0.03 | 0.25 (≈ 0.562 µM) | 0.5 (≈ 1.12 µM) |
| Cc1ccc(-c2ccc3c(=O)n(CC[C@](C)(C(=O)NO)S(C)(=O)=O)ccc3c2)cc1 [Example 54, (2R)—N-hydroxy-2-methanesulfonyl-2-methyl-4-[6-(4-methylphenyl)-1-oxo-1,2-dihydroisoquinolin-2-yl]butanamide] | < 0.03 | 0.5 (≈ 1.17 µM) | 1 (≈ 2.33 µM) |
| COc1ccc(-c2ccc3c(=O)n(CC[C@](C)(C(=O)NO)S(C)(=O)=O)ccc3c2)c(F)c1 [Example 55, (2R)-4-[6-(2-fluoro-4-methoxyphenyl)-1-oxo-1,2-dihydroisoquinolin-2-yl]-N-hydroxy-2-methanesulfonyl-2-methylbutanamide] | < 0.03 | 0.063 (≈ 0.136 µM) | 1 (≈ 2.16 µM) |
| C[C@@](CCn1ccc2cc(-c3ccccc3)ccc2c1=O)(C(=O)NO)S(C)(=O)=O [Example 56, (2R)—N-hydroxy-2-methanesulfonyl-2-methyl-4-(1-oxo-6-phenyl-1,2-dihydroisoquinolin-2-yl)butanamide] | 0.063 (≈ 0.152 µM) | 0.125 (≈ 0.302 µM) | 0.5 (≈ 1.21 µM) |

Results, then the compound that gave them:

| MIC (E. coli 7623) [µg/mL] | MIC (K. pneumoniae 1161486) [µg/mL] | MIC (P. aeruginosa PA01) [µg/mL] | Structure (SMILES) |
| --- | --- | --- | --- |
| < 0.03 | 0.125 (≈ 0.272 µM) | 1 (≈ 2.18 µM) | CCOc1ccc(-c2ccc3c(=O)n(CC[C@](C)(C(=O)NO)S(C)(=O)=O)cnc3c2)cc1 [Example 46, (2R)-4-[7-(4-ethoxyphenyl)-4-oxo-3,4-dihydroquinazolin-3-yl]-N-hydroxy-2-methanesulfonyl-2-methylbutanamide] |
| 0.063 (≈ 0.137 µM) | 0.125 (≈ 0.272 µM) | 0.5 (≈ 1.09 µM) | COCc1ccc(-c2ccc3c(=O)n(CC[C@](C)(C(=O)NO)S(C)(=O)=O)cnc3c2)cc1 [Example 47, (2R)—N-hydroxy-2-methanesulfonyl-4-{7-[4-(methoxymethyl)phenyl]-4-oxo-3,4-dihydroquinazolin-3-yl}-2-methylbutanamide] |
| < 0.03 | 0.125 (≈ 0.254 µM) | 1 (≈ 2.03 µM) | COCCc1ccc(-c2ccc3c(=O)n(CC[C@](C)(C(=O)NO)S(C)(=O)=O)cnc3c2)c(F)c1 [Example 48, (2R)-4-{7-[2-fluoro-4-(2-methoxyethyl)phenyl]-4-oxo-3,4-dihydroquinazolin-3-yl}-N-hydroxy-2-methanesulfonyl-2-methylbutanamide] |
| 0.125 (≈ 0.254 µM) | 0.5 (≈ 1.02 µM) | 2 (≈ 4.06 µM) | CONCc1ccc(-c2ccc3c(=O)n(CC[C@](C)(C(=O)NO)S(C)(=O)=O)cnc3c2)c(F)c1 [Example 50, (2R)-4-(7-{2-fluoro-4-[(methoxyamino)methyl]phenyl}-4-oxo-3,4-dihydroquinazolin-3-yl)-N-hydroxy-2-methanesulfonyl-2-methylbutanamide] |
| 0.063 (≈ 0.129 µM) | 0.25 (≈ 0.512 µM) | 8 (≈ 16.4 µM) | CON(C)Cc1ccc(-c2ccc3c(=O)n(CC[C@](C)(C(=O)NO)S(C)(=O)=O)cnc3c2)cc1 [Example 52, (2R)—N-hydroxy-2-methanesulfonyl-4-[7-(4-{[methoxy(methyl)amino]methyl}phenyl)-4-oxo-3,4-dihydroquinazolin-3-yl]-2-methylbutanamide] |
